In patent US7601512B2, “Methods for identifying inhibitors of the 20S and 26S proteasome” (Bayer CropScience AG, priority 2002, dated 2009):
Values after ≈ are worked out from the molar mass of the structure shown. *1 amine or outer side, *2 acyl side, *3 side chain or, on linkers, in order; H or OH if unused. Where a SMILES comes first, the peptide text is derived from it. [ ]: non-standard residue; d: D form. The star is where a group is joined. AMC = Cc1cc(=O)oc2cc(N*)ccc12; Suc = O=C(CCC(=O)[*:2])[*:1]; Nva = CCC[C@H](N)C(=O)O; Cbz = O=C(OCc1ccccc1)*

Columns and labels:
[1] = tested on: 20S proteasome; assay: 20S proteasome activity/inhibition assay with Suc-LLVY-AMC (AMC fluorescence); assay type: biochemical, yeast; Ustilago maydis; conditions: 40 nM MG-132, FIGS. 1 and 2
Method: FIG. 1 is an activity assay for the 20S proteasome from yeast. The substrate used for the chymotryptic activity was Suc-LLVY-AMC (SEQ. ID. NO. 1). Liberation of AMC was determined fluorometrically as a function of time. The proteasome activity was determined in a 1:100 dilution of a yeast extract in the presence of 40 nM MG132 and in the absence of MG-132. As a negative control, the reaction was carried out without enzyme (buffer).
FIG. 2 is an activity assay for the 20S proteasome from Ustilago maydis. The substrate used for the chymotryptic activity was Suc-LLVY-AMC (SEQ. ID. NO. 1). Liberation of AMC was determined fluorometrically as a function of time. The proteasome activity was determined in a 1:100 and 1:20 dilution of a U. maydis preparation. […]
The proteolytic activity measurable in this way can be influenced by an inhibitor such as, for example, MG-132, resulting in a lower relative fluorescence being observed (FIGS. 1 and 2). […]
The activity and inhibition assay which makes use of the known inhibitor MG-132 from Calbiochem and which is intended to check the usability of the method of the invention was carried out in 384-well MTPs (microtitre plates with 384 wells). […] The preliminary measurement (fluorescence) was carried out at 360/465 nm (35 nm bandwidth). […] The fluorescence was measured again at 360/465 nm (35 nm bandwidth).

[2] = tested on: S. cerevisiae; conditions: 30° C., Lee and Goldberg (1998); cited from earlier work
[3] = tested on: Botrytis cinerea (BOTRCI); assay: agar diffusion assay (fungicidal action, MIC); assay type: cell-based
[4] = tested on: Fusarium culmorum (FUSACU); assay: agar diffusion assay (fungicidal action, MIC); assay type: cell-based
[5] = tested on: Pseudocercosporella herpotrichoides (PSDCHW); assay: agar diffusion assay (fungicidal action, MIC); assay type: cell-based; conditions: PSDCHR
[6] = tested on: Pyricularia orycae (PYRIOR); assay: microbe, parasite or virus in culture; assay type: cell-based
[7] = tested on: Rhizoctonia solani (RHIZSO); assay: agar diffusion assay (fungicidal action, MIC); assay type: cell-based
[8] = tested on: Ustilago maydis (USTIMA); assay: agar diffusion assay (fungicidal action, MIC); assay type: cell-based
[9] = cited from earlier work
[10] = tested on: 20S proteasome; conditions: read-out: KM for Suc-LLVY-AMC; approx. 70 ng proteasomes per reaction, Lineweaver-Burke
Method: A constant amount of proteasomes (approx. 70 ng per reaction) was incubated with increasing amounts of substrate and the increase in fluorescence was then determined over a period of 5 minutes. The slopes of the curve (dotted line) were determined by calculating trend lines.

In the case of `CC(C)C[C@@H](C=O)NC(=O)[C@H](CC(C)C)NC(=O)[C@H](CC(C)C)NC(=O)OCc1ccccc1` [MG-132, Z-Leu-Leu-Leu-CHO] (Cbz-Leu-Leu-Leu-aldehyde), the “relative fluorescence (proteasome activity) in presence of inhibitor” value [1] is listed as “markedly reduces the relative fluorescence” and the “effect on the growth rate of yeast cells” value [2] is listed as “only a minimum effect, if any”.
Work on `CCC[C@@H](C=O)NC(=O)[C@H](CC(C)C)NC(=O)[C@H](CC(C)C)NC(=O)OCc1ccccc1` [Example 1, Carbobenzoxy-L-leucyl-L-leucyl-L-norvalinal] (Cbz-Leu-Leu-[Nva]-aldehyde) yielded an MIC ([3]; Botrytis cinerea, read-out: MIC (minimum inhibitory concentration)) of 58.6 µg/mL (≈ 127 µM), an MIC ([4]; Fusarium culmorum, FUSACU, agar diffusion assay, read-out: MIC (minimum inhibitory concentration)) greater than 1000 µg/mL and an MIC ([5]; Oculimacula yallundae, read-out: MIC (minimum inhibitory concentration)) greater than 1000 µg/mL. The MIC ([6]; Pyricularia, read-out: MIC (minimum inhibitory concentration)) was 2 µg/mL (≈ 4.33 µM), the MIC ([7]; Rhizoctonia solani, read-out: MIC (minimum inhibitory concentration)) was greater than 1000 µg/mL and the MIC ([8]; Mycosarcoma maydis, read-out: MIC (minimum inhibitory concentration)) was 750 µg/mL (≈ 1620 µM).
In the case of “Suc-Leu-Leu-Val-Tyr-AMC (Suc-LLVY-{AMC}; SMILES Cc1cc(=O)oc2cc(NC(=O)[C@H](Cc3ccc(O)cc3)NC(=O)[C@@H](NC(=O)[C@H](CC(C)C)NC(=O)[C@H](CC(C)C)NC(=O)CCC(=O)O)C(C)C)ccc12) [Suc-LLVY-AMC]”, the “solubility in DMSO” value [9] is listed as 50 mg/mL and the Km [10] is listed as 5 µM.
With Aprotinin [Example 2] the “MIC (minimum inhibitory concentration)” value [3] was 339.3 ppm, the “MIC (minimum inhibitory concentration)” value [4] was greater than 1000 ppm and the “MIC (minimum inhibitory concentration)” value [5] was greater than 1000 ppm. For the same compound, the “MIC (minimum inhibitory concentration)” value ([6]; PYRIOR, agar diffusion assay) was 18.0 ppm, the “MIC (minimum inhibitory concentration)” value [7] was greater than 1000 ppm and the “MIC (minimum inhibitory concentration)” value [8] was 750 ppm.
